Experimental data as given in US5932709A (University of Michigan, priority 1997, dated 1999).
pIC50: −log10 of the molar value.

Legend:
[1] = target: T1, human placental topoisomerase I (Homo sapiens, UniProt P11387); assay: Inhibition of topoisomerase I catalytic activity (relaxation of supercoiled SV40 DNA); type: biochemical; conditions: for relaxation of supercoiled DNA: FIG. 18 / FIG. 19, in words; for topoisomerase I inhibitory activity: comparison in words, vs camptothecin; for topoisomerase I inhibition: highest concentration tested (100 μg/mL), in words
T1 construct: purchased TopoGen; host or cells: human placenta
T1 sequence (P11387 1-765): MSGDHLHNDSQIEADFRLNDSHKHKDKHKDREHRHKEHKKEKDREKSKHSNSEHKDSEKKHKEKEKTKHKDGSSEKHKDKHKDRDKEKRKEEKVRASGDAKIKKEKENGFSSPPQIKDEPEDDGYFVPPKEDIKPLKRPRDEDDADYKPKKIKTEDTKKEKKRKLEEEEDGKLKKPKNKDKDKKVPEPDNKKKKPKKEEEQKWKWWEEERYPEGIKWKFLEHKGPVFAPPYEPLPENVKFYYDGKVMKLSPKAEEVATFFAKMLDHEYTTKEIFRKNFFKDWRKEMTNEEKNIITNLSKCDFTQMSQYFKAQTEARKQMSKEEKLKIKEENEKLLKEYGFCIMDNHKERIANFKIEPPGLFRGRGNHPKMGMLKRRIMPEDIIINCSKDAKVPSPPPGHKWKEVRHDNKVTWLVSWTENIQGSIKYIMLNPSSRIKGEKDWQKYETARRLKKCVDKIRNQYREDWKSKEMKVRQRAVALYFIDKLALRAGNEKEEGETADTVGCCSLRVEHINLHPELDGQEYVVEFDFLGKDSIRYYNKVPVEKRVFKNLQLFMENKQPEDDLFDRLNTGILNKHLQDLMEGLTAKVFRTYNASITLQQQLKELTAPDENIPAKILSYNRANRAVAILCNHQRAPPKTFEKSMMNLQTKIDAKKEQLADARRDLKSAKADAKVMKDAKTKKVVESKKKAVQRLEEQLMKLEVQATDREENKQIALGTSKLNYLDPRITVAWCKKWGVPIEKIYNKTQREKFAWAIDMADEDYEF
Experimental: The topoisomerase I catalytic activity was measured by converting the supercoiled SV40 DNA (Form I) to the relaxed form (Form Io). All reactions were performed in 20 μL reaction buffer (Tris-HCl, 10 mM, pH 7.5; EDTA, 1 mM; NaCl, 100 mM) with 0.25 μg SV40 DNA, 0.5 unit of human placental topoisomerase I (TopoGen) and graded concentrations of the analog tested. The reaction mixtures were incubated at 37° C. for 30 minutes. […] Ten μL of the reaction mixture was loaded onto a 1% agarose gel prepared in TAE buffer containing 2 μg/mL chloroquine; and the electrophoresis was performed at 82 volt for 4.5 hr in the TAE buffer containing 2 μg/mL chloroquine. […] The gels were then stained with 0.5 μg/mL ethidium bromide solution for 30 min or longer (if chloroquine is present during the electrophoresis step), and destained with 5 changes of deionized water. […] The DNA bands (image) on the negative were densitometrically scanned with a Molecular Dynamic Personal Densitometer. The percent inhibition of Toposiomerase I activity is calculated based on the following equation:
% Inhibition=(FSC(E+D) -FSC(E))/(FSC(C)
where FSC(E+D) represents fraction of supercoiled DNA in the presence of enzyme and drug; FSC(E) represents fraction of supercoiled DNA in the presence of enzyme alone; FSC(C) represents fraction of supercoiled DNA in the untreated SV40 DNA; the IC50 value was estimated using the same four-parameter logistic equation described in the in vitro growth inhibition studies.

tumor cells = assay: MTT growth inhibition across tumor cell lines (P388, P388/CPT, B16, HT-29, MCF-7M); type: cell-based; conditions: for growth inhibitory activity: comparison in words
Experimental: [See "Rapid Colorimetric Assay For Cellular Growth And Survival: Application To Proliferation And Cytotoxicity Assays," J. Immun. Meth. 65:55 (1983)]. The assay utilizes a tetrazolium salt to quantitatively measure mammalian cell survival and proliferation by colorimetric methods. In particular, MTT, a pale yellow compound with minimal absorbance, is incubated with cancerous cells in addition to (or in the absence of) a particular camptothecin analog. Living cells with active mitochondrial enzymes metabolize the MTT into a dark blue/purple formazan product with high absorbance. The exact procedure used to test the camptothecin analogs of the present invention is described below.
Exponentially growing cells (1-2×10^3 cells, unless specified otherwise) in 0.1 mL medium were seeded on day 0 in a 96-well microtiter plate. On day 1, 0.1 mL aliquots of medium containing graded concentrations of test analogs were added to the cell plates. After incubation at 37° C. in a humidified incubator for 3 days (P388, P388/CPT, B16) or 6 days (HT-29, MCF-7M), the plates were centrifuged briefly and 100 μL of the growth medium was removed. Cell cultures were incubated with 50 μL of 3-(4,5-dimethylthiazol-2-yl)-2,5-diphenyl-tetrazolium bromide [MTT, 1 mg/mL in Dulbecco's phosphate buffered saline (PBS)] for 4 hr at 37° C. The resulting purple formazan precipitate was solubilized with 200 μL of 0.04 N HCl in isopropyl alcohol. Absorbance was monitored in a BioRad Model 3550 Microplate Reader at a test wavelength of 570 nm and a reference wavelength of 630 nm. The absorbance is transferred to a PC 486 computer. The IC50 values were determined by a computer program (EZ-ED50) that fits all of the data to the following four-parameter logistic equation: […]

| SMILES | pIC50 [1] | relaxation of supercoiled DNA [1] | topoisomerase I inhibitory activity [1] | growth inhibitory activity (tumor cells) | potency in inhibiting growth of tumor cells (tumor cells; more potent than HAR7) | topoisomerase I inhibition [1] | topoisomerase I inhibition relative to HAR4 ([1]; more inhibitory than HAR4) [times] |
| --- | --- | --- | --- | --- | --- | --- | --- |
| CC[C@@]1(O)C(=O)OCc2c1cc1n(c2=O)Cc2c-1nc1ccccc1c2CO[C@@H]1C=C[C@H](OC(C)=O)[C@@H](COC(C)=O)O1 [HAR4, 7-[4,6-di-O-acetyl-2,3-dideoxy-α-D-erythro-hex-2-enopyranosyl]oxymethylcamptothecin] | 4.37 | inhibition of relaxation of supercoiled DNA | quite similar to those of camptothecin | quite similar to those of camptothecin | 2-3 fold | – | – |
| CC[C@@]1(O)C(=O)OCc2c1cc1n(c2=O)Cc2c-1nc1ccccc1c2CO[C@@H]1C=C[C@H](O[C@H]2O[C@H](COC(C)=O)[C@@H](OC(C)=O)[C@H](OC(C)=O)[C@H]2OC(C)=O)[C@@H](COC(C)=O)O1 [HAR5, 7-[6-O-acetyl-4-O-(2,3,4,6-tetra-O-acetyl-α-D-glucopyranosyl)-2,3-dideoxy-α-D-erythro-hex-2-enopyranosyl]oxymethylcamptothecin] | < 3.94 | inhibition of relaxation of supercoiled DNA | – | more cytotoxic than camptothecin hydroxyl maltal (HAR6) | – | moderately inhibited topoisomerase I activity | – |
| CC[C@@]1(O)C(=O)OCc2c1cc1n(c2=O)Cc2c-1nc1ccccc1c2CO[C@@H]1C=C[C@H](O[C@H]2O[C@H](CO)[C@@H](O)[C@H](O)[C@H]2O)[C@@H](CO)O1 [HAR6, 7-[4-O-(α-D-glucopyranosyl)-2,3-dideoxy-α-D-erythro-hex-2-enopyranosyl]-oxymethylcamptothecin] | < 3.83 | inhibition of relaxation of supercoiled DNA | – | – | – | moderately inhibited topoisomerase I activity | – |
| CC[C@@]1(O)C(=O)OCc2c1cc1n(c2=O)Cc2c-1nc1ccccc1c2CO[C@@H]1C=C[C@H](O)[C@@H](CO)O1 [HAR7, 7-[2,3-dideoxy-α-D-erythro-hex-2-enopyranosyl]-oxymethylcamptothecin] | 5.40 | inhibition of relaxation of supercoiled DNA | quite similar to those of camptothecin | quite similar to those of camptothecin | – | – | 10 |
